Experimental data as given in patent publication US4340609A, “Amidinourea derivative veterinary compositions for suppression of parasitemia” (William H. Rorer, Inc., priority 1980, dated 1982).
Counter-ions that a name gives are not always drawn. Like-named read-outs stand apart in the source and are kept apart here.

Tests used:
plasmodium berghei = test: suppression of parasitemia in mice infected with plasmodium berghei; type: in vivo; settings: for ED50: Plasmodium berghei, sc; for ED50 / Mean % Parasitemia / Mean % Suppression / % died: mice
Protocol: Five representative amidinoureas were tested in mice infected with plasmodium berghei. The five compounds tested are the following:
Groups of 10 mice each were used in seven doses totaling 70 mice per compound. The protozoal infection was induced by intraperitoneal injection of 5,000,000 parasitized blood cells from a donor. The compound was administered subcutaneously in doses ranging from 0.15 to 10 mg. per kg., suspended on 0.5% methacel solution (doses expressed as base). The compound was repeatedly injected on the day of inoculation (day 1), day 2 and day 3. Blood smears were performed on days 4, 5, 6 and 10.
Untreated control but infected mice developed fulminating parasitemia of as high as 35% on day 10 and deaths occurred from day 12 to 14.

LD50 in mice = settings: mouse, in vivo
[1] = s.c., 1.0 mg/kg on days 1-3, 4th day
[2] = s.c., 1.0 mg/kg on days 1-3, 5th day
[3] = s.c., 1.0 mg/kg on days 1-3, 6th day
[4] = s.c., 1.0 mg/kg on days 1-3, 10th day
[5] = s.c., 2.0 mg/kg on days 1-3, 4th day
[6] = s.c., 2.0 mg/kg on days 1-3, 5th day
[7] = s.c., 2.0 mg/kg on days 1-3, 6th day
[8] = s.c., 2.0 mg/kg on days 1-3, 10th day
[9] = s.c., 10.0 mg/kg on days 1-3, 4th day
[10] = s.c., 10.0 mg/kg on days 1-3, 5th day
[11] = s.c., 10.0 mg/kg on days 1-3, 6th day
[12] = s.c., 10.0 mg/kg on days 1-3, 10th day
[13] = s.c., .15 mg/kg on days 1-3, 4th day
[14] = s.c., .15 mg/kg on days 1-3, 5th day
[15] = s.c., .15 mg/kg on days 1-3, 6th day
[16] = s.c., .15 mg/kg on days 1-3, 10th day
[17] = s.c., .20 mg/kg on days 1-3, 4th day
[18] = s.c., .20 mg/kg on days 1-3, 5th day
[19] = s.c., .20 mg/kg on days 1-3, 6th day
[20] = s.c., .20 mg/kg on days 1-3, 10th day
[21] = s.c., .30 mg/kg on days 1-3, 4th day
[22] = s.c., .30 mg/kg on days 1-3, 5th day
[23] = s.c., .30 mg/kg on days 1-3, 6th day
[24] = s.c., .30 mg/kg on days 1-3, 10th day
[25] = s.c., .50 mg/kg on days 1-3, 4th day
[26] = s.c., .50 mg/kg on days 1-3, 5th day
[27] = s.c., .50 mg/kg on days 1-3, 6th day
[28] = s.c., .50 mg/kg on days 1-3, 10th day

For `CNC(=N)NC(=O)Nc1c(C)cccc1Br` [Compound B, 1-(2-bromo-6-methylphenyl)-3-methylamidino)urea hydrochloride], the ED50 (plasmodium berghei; 96 h, s.c., levels of parasitemia, 4th day, read-out: SED50 (Suppressant Effective Dose50)) was 1.87 mg/kg, the ED50 (plasmodium berghei; 120 h, s.c., levels of parasitemia, 5th day, read-out: SED50 (Suppressant Effective Dose50)) was 1.87 mg/kg and the ED50 (plasmodium berghei; 144 h, s.c., levels of parasitemia, 6th day, read-out: SED50 (Suppressant Effective Dose50)) was 1.66 mg/kg. For the same compound, the ED50 (plasmodium berghei; 240 h, s.c., levels of parasitemia, 10th day, read-out: SED50 (Suppressant Effective Dose50)) was 1.87 mg/kg, the ED50 (plasmodium berghei; day 4 to day 10, read-out: HIGHEST SED50) was 1.87 mg/kg and the ED50 (plasmodium berghei; day 4 to day 10, read-out: LOWEST SED50) was 1.66 mg/kg. The “FACTOR (HIGHEST SED50 ÷ LOWEST SED50)” value (plasmodium berghei; factor of change, day 4 to day 10, duration of action) was 1.12, the “Mean % Parasitemia” value (plasmodium berghei; [1]) was 3.75% and the “Mean % Suppression” value (plasmodium berghei; [1]) was 28.6%. For the same compound, the “Mean % Parasitemia” value (plasmodium berghei; [2]) was 4.30%, the “Mean % Suppression” value (plasmodium berghei; [2]) was 41.1% and the “Mean % Parasitemia” value (plasmodium berghei; [3]) was 5.10%. The “Mean % Suppression” value (plasmodium berghei; [3]) was 45.2%, the “Mean % Parasitemia” value (plasmodium berghei; [4]) was 23.2% and the “Mean % Suppression” value (plasmodium berghei; [4]) was 34.6%. The “% died” value (plasmodium berghei; s.c., 1.0 mg/kg on days 1-3, 12th day) was 0%, the “% died” value (plasmodium berghei; s.c., 1.0 mg/kg on days 1-3, 13th day) was 20% and the “% died” value (plasmodium berghei; s.c., 1.0 mg/kg on days 1-3, 14th day) was 20%. The “Mean % Parasitemia” value (plasmodium berghei; [5]) was 2.50%, the “Mean % Suppression” value (plasmodium berghei; [5]) was 52.3% and the “Mean % Parasitemia” value (plasmodium berghei; [6]) was 3.40%. For the same compound, the “Mean % Suppression” value (plasmodium berghei; [6]) was 53.2%, the “Mean % Parasitemia” value (plasmodium berghei; [7]) was 4.50% and the “Mean % Suppression” value (plasmodium berghei; [7]) was 51.6%. For the same compound, the “Mean % Parasitemia” value (plasmodium berghei; [8]) was 19.8%, the “Mean % Suppression” value (plasmodium berghei; [8]) was 44.2% and the “% died” value (plasmodium berghei; s.c., 2.0 mg/kg on days 1-3, 12th day) was 0%. For the same compound, the “% died” value (plasmodium berghei; s.c., 2.0 mg/kg on days 1-3, 13th day) was 0%, the “% died” value (plasmodium berghei; s.c., 2.0 mg/kg on days 1-3, 14th day) was 20% and the “Mean % Parasitemia” value (plasmodium berghei; [9]) was 0.25%. The “Mean % Suppression” value (plasmodium berghei; [9]) was 96.2%, the “Mean % Parasitemia” value (plasmodium berghei; [10]) was 0.50% and the “Mean % Suppression” value (plasmodium berghei; [10]) was 94.0%. The “Mean % Parasitemia” value (plasmodium berghei; [11]) was 0.05%, the “Mean % Suppression” value (plasmodium berghei; [11]) was 99.6% and the “Mean % Parasitemia” value (plasmodium berghei; [12]) was 0%. For the same compound, the “Mean % Suppression” value (plasmodium berghei; [12]) was 100.0%, the “% died” value (plasmodium berghei; s.c., 10.0 mg/kg on days 1-3, 12th day) was 0% and the “% died” value (plasmodium berghei; s.c., 10.0 mg/kg on days 1-3, 13th day) was 0%. The “% died” value (plasmodium berghei; s.c., 10.0 mg/kg on days 1-3, 14th day) was 0%, the “Mean % Parasitemia” value (plasmodium berghei; [13]) was 5.00% and the “Mean % Suppression” value (plasmodium berghei; [13]) was 4.8%. The “Mean % Parasitemia” value (plasmodium berghei; [14]) was 7.00%, the “Mean % Suppression” value (plasmodium berghei; [14]) was 4.1% and the “Mean % Parasitemia” value (plasmodium berghei; [15]) was 7.80%. For the same compound, the “Mean % Suppression” value (plasmodium berghei; [15]) was 16.1%, the “Mean % Parasitemia” value (plasmodium berghei; [16]) was 34.1% and the “Mean % Suppression” value (plasmodium berghei; [16]) was 3.9%. For the same compound, the “% died” value (plasmodium berghei; s.c., .15 mg/kg on days 1-3, 12th day) was 20%, the “% died” value (plasmodium berghei; s.c., .15 mg/kg on days 1-3, 13th day) was 20% and the “% died” value (plasmodium berghei; s.c., .15 mg/kg on days 1-3, 14th day) was 20%. The “Mean % Parasitemia” value (plasmodium berghei; [17]) was 5.00%, the “Mean % Suppression” value (plasmodium berghei; [17]) was 4.8% and the “Mean % Parasitemia” value (plasmodium berghei; [18]) was 6.90%. The “Mean % Suppression” value (plasmodium berghei; [18]) was 5.5%, the “Mean % Parasitemia” value (plasmodium berghei; [19]) was 7.40% and the “Mean % Suppression” value (plasmodium berghei; [19]) was 20.4%. For the same compound, the “Mean % Parasitemia” value (plasmodium berghei; [20]) was 30.2%, the “Mean % Suppression” value (plasmodium berghei; [20]) was 14.9% and the “% died” value (plasmodium berghei; s.c., .20 mg/kg on days 1-3, 12th day) was 0%. The “% died” value (plasmodium berghei; s.c., .20 mg/kg on days 1-3, 13th day) was 20%, the “% died” value (plasmodium berghei; s.c., .20 mg/kg on days 1-3, 14th day) was 40% and the “Mean % Parasitemia” value (plasmodium berghei; [21]) was 4.00%. For the same compound, the “Mean % Suppression” value (plasmodium berghei; [21]) was 23.8%, the “Mean % Parasitemia” value (plasmodium berghei; [22]) was 6.60% and the “Mean % Suppression” value (plasmodium berghei; [22]) was 9.6%. For the same compound, the “Mean % Parasitemia” value (plasmodium berghei; [23]) was 6.90%, the “Mean % Suppression” value (plasmodium berghei; [23]) was 25.8% and the “Mean % Parasitemia” value (plasmodium berghei; [24]) was 29.1%. The “Mean % Suppression” value (plasmodium berghei; [24]) was 18.0%, the “% died” value (plasmodium berghei; s.c., .30 mg/kg on days 1-3, 12th day) was 0% and the “% died” value (plasmodium berghei; s.c., .30 mg/kg on days 1-3, 13th day) was 0%. For the same compound, the “% died” value (plasmodium berghei; s.c., .30 mg/kg on days 1-3, 14th day) was 40%, the “Mean % Parasitemia” value (plasmodium berghei; [25]) was 4.00% and the “Mean % Suppression” value (plasmodium berghei; [25]) was 23.8%. The “Mean % Parasitemia” value (plasmodium berghei; [26]) was 5.10%, the “Mean % Suppression” value (plasmodium berghei; [26]) was 30.1% and the “Mean % Parasitemia” value (plasmodium berghei; [27]) was 5.80%. The “Mean % Suppression” value (plasmodium berghei; [27]) was 37.6%, the “Mean % Parasitemia” value (plasmodium berghei; [28]) was 26.7% and the “Mean % Suppression” value (plasmodium berghei; [28]) was 24.8%. The “% died” value (plasmodium berghei; s.c., .50 mg/kg on days 1-3, 12th day) was 20%, the “% died” value (plasmodium berghei; s.c., .50 mg/kg on days 1-3, 13th day) was 40% and the “% died” value (plasmodium berghei; s.c., .50 mg/kg on days 1-3, 14th day) was 60%. The LD50 (LD50 in mice) was 82 to 135 mg/kg.
